Test results taken from paper PMC6002741 (British Journal of Pharmacology, 2018).

Experiments:
Format in all cases: cell-based
[1] = target: T1, TRPM4 (Homo sapiens, UniProt Q8TD43)
[2] = target: T2, TRPM5 (Homo sapiens, UniProt Q9NZQ8); experiment: Excised membrane voltage clamp recordings on HEK293 cells expressing TRPM5; conditions: excised patches, 50 μM free Ca2+, +100 mV
T2 sequence (Q9NZQ8 1-1165): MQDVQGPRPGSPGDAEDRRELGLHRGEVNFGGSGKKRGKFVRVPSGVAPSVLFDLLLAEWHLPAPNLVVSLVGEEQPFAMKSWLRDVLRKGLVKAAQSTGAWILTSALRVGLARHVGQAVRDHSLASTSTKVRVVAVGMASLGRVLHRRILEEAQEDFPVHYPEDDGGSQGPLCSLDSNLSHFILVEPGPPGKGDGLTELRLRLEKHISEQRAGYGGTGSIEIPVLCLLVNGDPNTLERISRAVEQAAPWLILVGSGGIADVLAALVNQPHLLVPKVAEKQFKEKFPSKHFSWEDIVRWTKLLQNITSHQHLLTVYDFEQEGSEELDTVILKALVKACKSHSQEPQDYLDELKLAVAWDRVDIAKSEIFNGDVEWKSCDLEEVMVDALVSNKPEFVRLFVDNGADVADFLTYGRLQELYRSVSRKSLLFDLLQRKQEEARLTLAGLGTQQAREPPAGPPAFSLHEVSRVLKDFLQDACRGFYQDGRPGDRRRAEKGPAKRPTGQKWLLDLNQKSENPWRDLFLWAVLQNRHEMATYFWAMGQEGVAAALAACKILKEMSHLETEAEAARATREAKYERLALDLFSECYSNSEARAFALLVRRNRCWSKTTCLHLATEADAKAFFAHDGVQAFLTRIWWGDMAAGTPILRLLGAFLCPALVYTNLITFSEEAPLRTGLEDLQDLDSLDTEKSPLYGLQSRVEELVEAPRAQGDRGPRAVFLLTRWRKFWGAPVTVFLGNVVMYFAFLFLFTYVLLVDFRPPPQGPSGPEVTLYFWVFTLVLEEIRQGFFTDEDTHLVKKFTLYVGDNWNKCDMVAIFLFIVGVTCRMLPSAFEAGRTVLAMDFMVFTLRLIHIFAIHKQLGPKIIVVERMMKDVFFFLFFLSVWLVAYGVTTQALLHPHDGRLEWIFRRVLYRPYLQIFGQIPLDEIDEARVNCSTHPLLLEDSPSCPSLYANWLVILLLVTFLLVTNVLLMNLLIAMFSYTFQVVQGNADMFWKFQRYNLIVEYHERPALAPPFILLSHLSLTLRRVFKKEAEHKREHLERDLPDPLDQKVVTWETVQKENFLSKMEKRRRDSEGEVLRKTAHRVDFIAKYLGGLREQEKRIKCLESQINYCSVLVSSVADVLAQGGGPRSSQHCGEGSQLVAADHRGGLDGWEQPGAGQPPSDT

[3] = target: T1, TRPM4; experiment: Na+ influx screening assay
[4] = target: TRPM4 A432T (Homo sapiens, UniProt Q8TD43, A432T); experiment: Western blot of total and surface expression of TRPM4 A432T variant; conditions: 50 μM overnight, HEK293
TRPM4 A432T, sequence (Q8TD43 whole entry A432T): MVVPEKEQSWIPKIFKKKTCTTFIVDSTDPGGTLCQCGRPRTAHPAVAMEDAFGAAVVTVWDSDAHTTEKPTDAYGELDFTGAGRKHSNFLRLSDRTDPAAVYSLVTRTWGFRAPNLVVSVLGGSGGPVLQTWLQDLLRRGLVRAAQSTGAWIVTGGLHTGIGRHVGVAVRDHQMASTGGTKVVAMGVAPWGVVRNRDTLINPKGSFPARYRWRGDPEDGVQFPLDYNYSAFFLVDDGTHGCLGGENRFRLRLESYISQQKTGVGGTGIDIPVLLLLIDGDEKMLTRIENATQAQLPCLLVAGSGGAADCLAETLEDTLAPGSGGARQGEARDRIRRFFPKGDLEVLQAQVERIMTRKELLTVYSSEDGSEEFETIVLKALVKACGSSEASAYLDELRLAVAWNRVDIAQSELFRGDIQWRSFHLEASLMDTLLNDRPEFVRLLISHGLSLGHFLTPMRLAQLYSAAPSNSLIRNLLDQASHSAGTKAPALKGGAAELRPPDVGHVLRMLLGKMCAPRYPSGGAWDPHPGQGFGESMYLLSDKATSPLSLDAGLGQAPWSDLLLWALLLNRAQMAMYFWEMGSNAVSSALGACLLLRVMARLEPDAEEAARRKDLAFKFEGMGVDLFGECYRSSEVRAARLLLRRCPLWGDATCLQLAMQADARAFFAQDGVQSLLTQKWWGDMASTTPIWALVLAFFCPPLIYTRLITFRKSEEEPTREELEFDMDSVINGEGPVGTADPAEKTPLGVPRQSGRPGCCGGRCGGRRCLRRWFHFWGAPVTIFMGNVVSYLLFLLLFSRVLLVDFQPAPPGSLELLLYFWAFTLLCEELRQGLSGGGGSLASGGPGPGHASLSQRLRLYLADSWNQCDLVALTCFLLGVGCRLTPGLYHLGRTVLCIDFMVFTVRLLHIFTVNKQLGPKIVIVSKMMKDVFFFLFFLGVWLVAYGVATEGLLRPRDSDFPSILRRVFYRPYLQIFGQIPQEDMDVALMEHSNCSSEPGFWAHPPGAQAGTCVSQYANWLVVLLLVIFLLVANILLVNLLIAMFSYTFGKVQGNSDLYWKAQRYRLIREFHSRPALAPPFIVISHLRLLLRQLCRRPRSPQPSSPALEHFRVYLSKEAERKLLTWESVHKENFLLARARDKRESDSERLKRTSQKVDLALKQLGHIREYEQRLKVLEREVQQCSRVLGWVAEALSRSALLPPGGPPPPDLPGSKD

T1 sequence (Q8TD43 whole entry): as the sequence (Q8TD43 whole entry A432T) above, with T432A counted along it

Oc1cc2ccccc2c2ccccc12 [9-phenanthrol, reference compound]
IC50 [1]: 17 ± 2.8 µM

Cc1cc(Cl)ccc1OC(C)C(=O)Nc1cc(Cl)ccc1C(=O)O (stereo not shown) [Compound 4]
effect on TRPM5 current [2]: variable potentiating effect | IC50 [1]: 1 ± 0.2 µM | inhibition of TRPM4 current on application to the cytosolic side ([1]; 1 μM on cytosolic side of excised patches, washout): reversible inhibition | inhibitory activity on TRPM4-mediated Na+ influx, hit confirmation ([3]; 5 μM, repurchased solid samples): confirmed their inhibitory activity

O=C(COc1ccccc1Cl)Nc1cc(Br)ccc1C(=O)O [Compound 11]
IC50 [1]: 1.6 ± 0.5 µM

Cc1cc(Cl)ccc1OCC(=O)Nc1cc(Cl)ccc1C(=O)O [Compound 51]
rescue of A432T total and surface expression [4]: did not restore the expression | TRPM4 inhibitory activity in words (SAR) ([3]; Na+ influx, Supporting Information Table S3 / text): no inhibitory activity

O=C(O)c1ccccc1Nc1cccc(C(F)(F)F)c1 [FFA, flufenamic acid, reference compound]
IC50 [1]: 9.2 ± 1.2 µM

O=P(c1ccccc1)(c1ccccc1)c1ccccc1 [TPPO, triphenylphosphine oxide, reference compound]
effect on TRPM5 current (positive control) ([2]; 20 μM): inhibited TRPM5 current
